Data taken from patent publication US10556898B2, “Indazolyl-1,2,4-thiadiazolamines and related compounds for inhibition of Rho-associated protein kinase and the treatment of disease” (Lycera Corporation, priority 2016, dated 2020).
Where two headings read alike, the source gives them in different places.

Assays:
[1] = molecular target: T1, GST-tagged human ROCK2 catalytic domain 1-553 (Homo sapiens, UniProt O75116); experiment: Isolated Enzyme Assay, ROCK2 (LANCE Ultra ULight-CREBtide FRET); format: biochemical; details: 30 μM highest concentration tested, read-out: Results from Isolated Enzyme Assay IC50 (μM) ROCK2
T1 construct: GST-tagged human ROCK2 catalytic domain 1-553 from Carna Biosciences (Cat #01-110); purchased Carna Biosciences 01-110; host or cells: baculovirus expression system
Protocol: (§1) Exemplary compounds were tested for ability to inhibit Rho-associated protein kinase isoform 1 (ROCK1) and Rho-associated protein kinase isoform 2 (ROCK2). Assay procedures and results are described below.
(§2) Part I—Procedure for Determining ROCK Inhibition Ability of Test Compounds Using an Isolated Enzyme Assay
(§3) Protein constructs were purified from a baculovirus expression system. The peptide substrate was fluorescent LANCE® Ultra ULight-CREBtide: […] (PerkinElmer, # TRF0107-D). Kinase reactions were carried out in a 10 μL volume in 384-well plates: 50 nM ULight-CREBtide substrate, 2 nM constitutively active ROCK1 or ROCK2 kinase, and test compound in DMSO (or DMSO only for controls) were diluted into assay buffer containing 50 mM Tris-HCl (pH=7.5), 10 mM MgCl2, 1 mM EGTA, 0.01% Tween-20, and 2 mM DTT such that the final concentration of DMSO was 0.5%. After a 90 minute incubation at room temperature on a shaker table, the kinase reaction was stopped by addition of 10 mM EDTA, and phosphorylation of the substrate was detected by adding 1 nM LANCE® Ultra Europium-anti-phospho-CREB (ser133) antibody (PerkinElmer, # TRF0200-D) and incubating for 60 minutes on a shaker at room temperature. The fluorescence resonance energy transfer (FRET) signals were read and analyzed on an Envision™ 2103 Multilabel Reader (Perkin Elmer). The concentration of test compound required to inhibit substrate phosphorylation by 50% (the IC50) was calculated by non-linear regression using GraphPad PRIZM.

[2] = molecular target: T2, GST-tagged human ROCK1 catalytic domain 1-477 (Homo sapiens, UniProt Q13464); experiment: Isolated Enzyme Assay, ROCK1 (LANCE Ultra ULight-CREBtide FRET); format: biochemical; details: 30 μM highest concentration tested, read-out: Results from Isolated Enzyme Assay IC50 (μM) ROCK1
T2 construct: human ROCK1 catalytic domain 1-477 from Carna Biosciences (cat #01-109); purchased Carna Biosciences 01-109; host or cells: baculovirus expression system
Protocol: as §1, §2, §3

[3] = molecular target: T3, ROCK2 (Homo sapiens, UniProt O75116); experiment: Cell-Based Assay, ROCK2 (HAP1 knockout cells, phospho-MYPT1 Thr853 ELISA); details: phospho-MYPT1, 30 μM highest concentration tested, read-out: Results from Cell-Based Assay IC50 (μM) ROCK2
T3 construct: endogenous in cells; host or cells: HAP1 knockout cells
Protocol: Part II—Procedure for Determining ROCK Inhibition Ability of Test Compounds Using a Cell-Base Assay
The Cell-Based Assay for determining ROCK inhibition ability of test compounds utilized a genetically modified HAP1 cell line engineered to eliminate expression of either ROCK1 or ROCK2. In the procedure, HAP1 knockout cells are grown in Iscove's Modified Dulbecco's Medium that is additionally supplemented with 10% fetal bovine and 1x antibiotic-antimycotic mixture. Cells are plated in 96 well tissue culture plates at 1×10^5 cells/well (100 μL, of cells at 1×10^6/mL). Test compounds are solubilized in DMSO and diluted into the same media used to grow the cells. A 100 μL, aliquot of each compound dilution in media is added to each well containing the HAP1 cells and incubated at 37° C. for 30 minutes. Following compound incubation, the cells are pelleted by centrifugation at 1800 rpm for 5 minutes at 4° C. Media is removed from the cell pellet and the cells lysed and de-salted. An 80 μL, aliquot of each cell lysate is added to a single well of a 96-well high binding ELISA plate which has been pre-coated with a MYPT1 capture antibody and incubated at 4° C. overnight. The following day the ELISA plate is washed 4× with 0.05% Tween-20 in PBS. After washing, an anti-phospho-MYPT1 (Thr853) antibody is added and allowed to bind for 1 hour at room temperature. The wash step is repeated, and then an anti-rabbit HRP detection antibody is added and allowed to incubate at room temperature for 1 hour. The wash step is then repeated and 100 μL/well 1-Step™ Ultra TMB substrate is added to the ELISA plate and allowed to develop for approximately 5 minutes. The reaction is stopped by addition of H2SO4. Absorbance is read at 450 OD. Data is analyzed using GraphPad Prism software to calculate the 50% inhibitory concentration of test compound (IC50).

T2 sequence (Q13464 1-477): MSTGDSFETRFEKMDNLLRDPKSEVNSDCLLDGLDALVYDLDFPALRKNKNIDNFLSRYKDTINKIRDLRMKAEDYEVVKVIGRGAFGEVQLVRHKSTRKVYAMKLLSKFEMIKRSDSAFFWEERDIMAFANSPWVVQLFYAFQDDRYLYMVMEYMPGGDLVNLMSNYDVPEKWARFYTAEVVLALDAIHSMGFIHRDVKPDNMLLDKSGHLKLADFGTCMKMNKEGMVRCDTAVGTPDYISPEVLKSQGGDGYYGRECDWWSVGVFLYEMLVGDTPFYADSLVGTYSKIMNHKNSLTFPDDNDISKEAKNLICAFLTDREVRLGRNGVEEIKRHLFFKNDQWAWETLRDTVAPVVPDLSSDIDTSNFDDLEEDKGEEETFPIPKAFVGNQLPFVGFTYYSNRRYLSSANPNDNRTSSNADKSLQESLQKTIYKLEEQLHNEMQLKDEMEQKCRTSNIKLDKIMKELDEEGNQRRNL
T3 sequence (O75116 whole entry): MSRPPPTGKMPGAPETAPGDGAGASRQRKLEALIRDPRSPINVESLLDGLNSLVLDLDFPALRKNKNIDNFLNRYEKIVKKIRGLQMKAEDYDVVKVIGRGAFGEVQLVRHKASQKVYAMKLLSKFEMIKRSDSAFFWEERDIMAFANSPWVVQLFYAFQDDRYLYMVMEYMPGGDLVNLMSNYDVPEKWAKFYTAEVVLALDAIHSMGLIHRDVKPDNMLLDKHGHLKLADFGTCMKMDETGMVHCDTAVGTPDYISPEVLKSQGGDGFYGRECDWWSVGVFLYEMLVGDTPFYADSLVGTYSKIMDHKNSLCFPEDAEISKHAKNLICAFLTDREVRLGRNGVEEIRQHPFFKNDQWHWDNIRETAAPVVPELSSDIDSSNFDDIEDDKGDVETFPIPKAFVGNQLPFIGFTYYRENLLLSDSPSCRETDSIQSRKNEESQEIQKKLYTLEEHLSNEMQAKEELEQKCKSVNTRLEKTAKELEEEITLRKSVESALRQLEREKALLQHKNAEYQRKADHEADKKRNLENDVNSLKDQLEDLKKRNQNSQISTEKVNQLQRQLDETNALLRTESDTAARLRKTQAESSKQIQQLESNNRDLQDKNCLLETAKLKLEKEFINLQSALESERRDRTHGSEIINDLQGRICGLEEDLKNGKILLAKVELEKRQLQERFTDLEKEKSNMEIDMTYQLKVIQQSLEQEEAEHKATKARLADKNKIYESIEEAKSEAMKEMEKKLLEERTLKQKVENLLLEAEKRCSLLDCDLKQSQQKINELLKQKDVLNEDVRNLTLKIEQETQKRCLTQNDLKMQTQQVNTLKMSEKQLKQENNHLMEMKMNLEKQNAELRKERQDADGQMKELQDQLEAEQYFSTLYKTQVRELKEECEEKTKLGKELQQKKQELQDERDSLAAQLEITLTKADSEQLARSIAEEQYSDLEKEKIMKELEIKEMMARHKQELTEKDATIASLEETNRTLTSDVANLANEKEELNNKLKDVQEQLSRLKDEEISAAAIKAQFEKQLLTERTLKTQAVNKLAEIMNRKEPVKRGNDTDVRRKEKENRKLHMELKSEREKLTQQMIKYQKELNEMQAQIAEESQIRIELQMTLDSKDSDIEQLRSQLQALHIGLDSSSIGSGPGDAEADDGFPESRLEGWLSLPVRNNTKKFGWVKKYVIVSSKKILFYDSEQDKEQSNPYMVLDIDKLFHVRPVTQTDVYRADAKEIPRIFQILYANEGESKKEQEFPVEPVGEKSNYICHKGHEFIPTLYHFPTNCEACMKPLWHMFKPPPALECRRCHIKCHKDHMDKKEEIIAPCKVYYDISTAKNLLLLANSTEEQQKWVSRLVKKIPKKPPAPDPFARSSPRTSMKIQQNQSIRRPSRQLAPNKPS
T1 sequence (O75116 1-553): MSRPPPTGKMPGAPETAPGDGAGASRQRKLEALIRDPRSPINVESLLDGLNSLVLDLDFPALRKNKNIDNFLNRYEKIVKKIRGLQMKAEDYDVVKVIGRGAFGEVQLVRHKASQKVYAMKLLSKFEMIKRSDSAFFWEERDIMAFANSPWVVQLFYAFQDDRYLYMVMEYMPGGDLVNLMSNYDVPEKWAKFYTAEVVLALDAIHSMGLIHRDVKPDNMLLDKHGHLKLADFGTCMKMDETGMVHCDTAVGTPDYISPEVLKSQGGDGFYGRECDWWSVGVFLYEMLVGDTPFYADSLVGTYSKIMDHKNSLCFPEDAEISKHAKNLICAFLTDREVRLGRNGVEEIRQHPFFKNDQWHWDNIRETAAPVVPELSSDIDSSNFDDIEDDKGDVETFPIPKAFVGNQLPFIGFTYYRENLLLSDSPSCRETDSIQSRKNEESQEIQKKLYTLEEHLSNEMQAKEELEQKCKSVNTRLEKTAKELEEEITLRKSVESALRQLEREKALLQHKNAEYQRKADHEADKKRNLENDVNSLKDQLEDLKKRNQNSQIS

Row | IC50 ([1]; isolated enzyme) [µM] | IC50 ([2]; isolated enzyme) [µM] | IC50 [3] [µM] | IC50 ([1]; isolated enzyme assay) [µM] | IC50 ([2]; isolated enzyme assay) [µM] | Compound
1 | < 1 | 1 to 15 | – | – | – | O=C(Nc1cccc(-c2nsc(Nc3ccc4[nH]ncc4c3)n2)c1)c1c[nH]cn1 [Compound A-1]
2 | < 1 | > 30 | – | – | – | O=C(Nc1cccc(-c2nsc(Nc3ccc4[nH]ncc4c3)n2)c1)c1cccnc1 [Compound A-2]
3 | > 30 | > 30 | – | – | – | Cc1n[nH]c2ccc(Nc3nc(-c4ccnc(NC(=O)c5ccnn5C)c4)ns3)cc12 [Compound A-5]
4 | < 1 | > 30 | < 1 | – | – | Cn1nccc1C(=O)Nc1cc(-c2nsc(Nc3ccc4[nH]ncc4c3Cl)n2)ccn1 [Compound A-9]
5 | < 1 | < 1 | < 1 | – | – | Cc1nc(C)c(C(=O)Nc2cccc(-c3nsc(Nc4ccc5[nH]ncc5c4Cl)n3)c2)s1 [Compound A-11]
6 | < 1 | < 1 | < 1 | – | – | Cc1cc(C(=O)Nc2cccc(-c3nsc(Nc4ccc5[nH]ncc5c4Cl)n3)c2)n(C)n1 [Compound A-12]
7 | < 1 | < 1 | < 1 | – | – | O=C(Nc1cccc(-c2nsc(Nc3ccc4[nH]ncc4c3Cl)n2)c1)c1cnc[nH]1 [Compound A-14]
8 | – | – | – | < 1 | > 30 | Cn1cc(-c2nsc(Nc3ccc4[nH]ncc4c3Cl)n2)cc(NC(=O)c2cnccn2)c1=O [IV-1]
9 | – | – | – | < 1 | 1 to 15 | CC(C)N1CCN(c2cc(-c3nsc(Nc4ccc5[nH]ncc5c4Cl)n3)cn(C)c2=O)C1=O [IV-3]
10 | – | – | – | < 1 | > 30 | Cn1cc(-c2nsc(Nc3ccc4[nH]ncc4c3Cl)n2)cc(N2CCOC2=O)c1=O [IV-4]
11 | – | – | – | < 1 | 1 to 15 | CS(=O)(=O)Nc1cccc(-c2nsc(Nc3ccc4[nH]ncc4c3Cl)n2)c1 [IV-16]
12 | – | – | – | < 1 | < 1 | Cc1cc(=O)n(-c2cc(-c3nsc(Nc4ccc5[nH]ncc5c4Cl)n3)ccn2)n1C [IV-23]
13 | – | – | – | < 1 | > 30 | Cc1cc(NC(=O)c2cc(C)nn2C)cc(-c2nsc(Nc3ccc4[nH]ncc4c3Cl)n2)n1 [IV-37]
14 | – | – | – | 1 to 15 | < 1 | Cc1nc(S(=O)(=O)Nc2cccc(-c3nsc(Nc4ccc5[nH]ncc5c4Cl)n3)c2)cn1C [IV-41]
15 | – | – | – | 1 to 15 | 1 to 15 | O=c1ccccn1-c1cccc(-c2nsc(Nc3ccc4[nH]ncc4c3Cl)n2)c1 [IV-53]
16 | – | – | – | 1 to 15 | 1 to 15 | CN(C)CCn1cnc2c(-c3nsc(Nc4ccc5[nH]ncc5c4Cl)n3)cccc21 [IV-67]
17 | – | – | – | 1 to 15 | 1 to 15 | CN1CCN(C(=O)c2cccc(-c3nsc(Nc4ccc5[nH]ncc5c4Cl)n3)c2)CC1 [IV-85]
18 | – | – | – | 1 to 15 | > 30 | CN(C)C(=O)c1cccc(-c2nsc(Nc3ccc4[nH]ncc4c3Cl)n2)c1 [IV-87]
19 | – | – | – | > 30 | > 30 | O=C1CCCN1c1cc(-c2nsc(Nc3ccc4[nH]ncc4c3Cl)n2)cn2ccnc12 [IV-92]
20 | – | – | – | > 30 | > 30 | Cc1coc(-c2cccc(-c3nsc(Nc4cc5cn[nH]c5cc4F)n3)c2)n1 [IV-93]
21 | – | – | – | > 30 | > 30 | CS(=O)(=O)c1cccc(-c2nsc(Nc3ccc4[nH]ncc4c3Cl)n2)c1 [IV-99]
22 | – | – | – | > 30 | > 30 | N#Cc1c(Nc2nc(-c3cccc([N+](=O)[O-])c3)ns2)ccc2[nH]ncc12 [IV-100]
23 | – | – | – | > 30 | > 30 | O=C(Cn1cc(Cl)cn1)Nc1cccc(-c2nsc(Nc3ccc4[nH]ncc4c3Cl)n2)c1 [IV-104]
24 | – | – | – | > 30 | 15 to 30 | NC[C@@H]1CCCN1c1nsc(Nc2ccc3[nH]ncc3c2Cl)n1 [IV-109]
25 | – | – | – | 15 to 30 | > 30 | Cn1nccc1C(=O)NC[C@@H]1CCCN1c1nsc(Nc2ccc3[nH]ncc3c2Cl)n1 [IV-110]

The remaining lines, values behind:

Row | Compound | IC50 ([1]; isolated enzyme) [µM] | IC50 ([2]; isolated enzyme) [µM] | IC50 [3] [µM] | IC50 ([1]; isolated enzyme assay) [µM] | IC50 ([2]; isolated enzyme assay) [µM]
26 | Cn1nccc1C(=O)Nc1cncc(-c2nsc(Nc3ccc4[nH]ncc4c3Cl)n2)c1 [Compound A-6] | < 1 | > 30 | – | – | –
27 | Cc1n[nH]c2ccc(Nc3nc(-c4cncc(NC(=O)c5ccnn5C)c4)ns3)cc12 [Compound A-7] | > 30 | > 30 | – | – | –
28 | Cc1n[nH]c2ccc(Nc3nc(-c4cccc(NC(=O)c5ccnn5C)c4)ns3)cc12 [Compound A-8] | < 1 | > 30 | – | – | –
29 | Cc1coc(-c2cccc(-c3nsc(Nc4ccc5[nH]ncc5c4Cl)n3)c2)n1 [Compound A-10] | < 1 | < 1 | < 1 | – | –
30 | Cn1nc(C(=O)Nc2cccc(-c3nsc(Nc4ccc5[nH]ncc5c4Cl)n3)c2)cc1C(F)(F)F [Compound A-13] | < 1 | < 1 | < 1 | – | –
31 | Cc1nn(C)cc1C(=O)Nc1cccc(-c2nsc(Nc3ccc4[nH]ncc4c3Cl)n2)c1 [Compound A-15] | < 1 | < 1 | < 1 | – | –
32 | Cn1cc(-c2nsc(Nc3ccc4[nH]ncc4c3Cl)n2)cc(N2CCCC2=O)c1=O [IV-11] | – | – | – | 1 to 15 | > 30
33 | O=C(Nc1cncc(-c2nsc(Nc3ccc4[nH]ncc4c3Cl)n2)c1)c1cncs1 [IV-18] | – | – | – | < 1 | > 30
34 | O=C(Nc1cncc(-c2nsc(Nc3ccc4[nH]ncc4c3Cl)n2)c1)c1cocn1 [IV-36] | – | – | – | < 1 | > 30
35 | O=S(=O)(Nc1cccc(-c2nsc(Nc3ccc4[nH]ncc4c3Cl)n2)c1)c1cccnc1 [IV-40] | – | – | – | 1 to 15 | > 30
36 | Cc1c(S(=O)(=O)Nc2cccc(-c3nsc(Nc4ccc5[nH]ncc5c4Cl)n3)c2)cnn1C(F)F [IV-51] | – | – | – | 1 to 15 | 15 to 30
37 | O=C1CCCN1c1cc(-c2nsc(Nc3ccc4[nH]ncc4c3Cl)n2)ccn1 [IV-52] | – | – | – | < 1 | < 1
38 | O=C(c1cccc(-c2nsc(Nc3ccc4[nH]ncc4c3Cl)n2)c1)N1CCOCC1 [IV-80] | – | – | – | 1 to 15 | 1 to 15
39 | O=C(c1cccc(-c2nsc(Nc3ccc4[nH]ncc4c3Cl)n2)c1)N1CCc2ccccc2C1 [IV-84] | – | – | – | < 1 | > 30
40 | O=C(c1cccc(-c2nsc(Nc3ccc4[nH]ncc4c3Cl)n2)c1)N1CCCC1 [IV-86] | – | – | – | 1 to 15 | 1 to 15
41 | Cn1cc(-c2nsc(Nc3ccc4[nH]ncc4c3Cl)n2)cc(C(=O)O)c1=O [IV-91] | – | – | – | > 30 | > 30
42 | Cn1nccc1C(=O)NC[C@@H]1CCN(c2nsc(Nc3ccc4[nH]ncc4c3Cl)n2)C1 [IV-94] | – | – | – | > 30 | > 30
43 | O=c1c2ccccc2ncn1-c1cccc(-c2nsc(Nc3ccc4[nH]ncc4c3Cl)n2)c1 [IV-95] | – | – | – | > 30 | > 30
44 | O=C(Nc1cc(-c2nsc(Nc3ccc4[nH]ncc4c3Cl)n2)ccn1)c1cocn1 [IV-96] | – | – | – | > 30 | > 30
45 | Cc1nn(C(F)F)cc1S(=O)(=O)Nc1cccc(-c2nsc(Nc3ccc4[nH]ncc4c3Cl)n2)c1 [IV-98] | – | – | – | > 30 | > 30
46 | CP(C)(=O)c1cccc(-c2nsc(Nc3ccc4[nH]ncc4c3Cl)n2)c1 [IV-102] | – | – | – | > 30 | > 30
47 | Cc1nc2ccccc2c(=O)n1-c1cccc(-c2nsc(Nc3ccc4[nH]ncc4c3Cl)n2)c1 [IV-111] | – | – | – | 1 to 15 | > 30
